In US20100204340A1 (priority 2009, published 2010):
Values after ≈ are worked out from the molar mass of the structure shown. Like-named read-outs stand apart in the source and are kept apart here.

Tests used:
SIRT1 polypeptide = target: T1, SIRT1 polypeptide (Homo sapiens, UniProt Q96EB6); assay: SIRT 1 Direct fluorescent Screening Assay kit (Cayman); assay type: biochemical; settings: read-out: Percentage SIRT 1 modulation; for activation at 1 µg/mL: 1 μg/ml; for activation at 10 µg/mL: 10 μg/ml
T1 construct: purchased Cayman Chemical Company 10010401
T1 sequence (Q96EB6 1-747): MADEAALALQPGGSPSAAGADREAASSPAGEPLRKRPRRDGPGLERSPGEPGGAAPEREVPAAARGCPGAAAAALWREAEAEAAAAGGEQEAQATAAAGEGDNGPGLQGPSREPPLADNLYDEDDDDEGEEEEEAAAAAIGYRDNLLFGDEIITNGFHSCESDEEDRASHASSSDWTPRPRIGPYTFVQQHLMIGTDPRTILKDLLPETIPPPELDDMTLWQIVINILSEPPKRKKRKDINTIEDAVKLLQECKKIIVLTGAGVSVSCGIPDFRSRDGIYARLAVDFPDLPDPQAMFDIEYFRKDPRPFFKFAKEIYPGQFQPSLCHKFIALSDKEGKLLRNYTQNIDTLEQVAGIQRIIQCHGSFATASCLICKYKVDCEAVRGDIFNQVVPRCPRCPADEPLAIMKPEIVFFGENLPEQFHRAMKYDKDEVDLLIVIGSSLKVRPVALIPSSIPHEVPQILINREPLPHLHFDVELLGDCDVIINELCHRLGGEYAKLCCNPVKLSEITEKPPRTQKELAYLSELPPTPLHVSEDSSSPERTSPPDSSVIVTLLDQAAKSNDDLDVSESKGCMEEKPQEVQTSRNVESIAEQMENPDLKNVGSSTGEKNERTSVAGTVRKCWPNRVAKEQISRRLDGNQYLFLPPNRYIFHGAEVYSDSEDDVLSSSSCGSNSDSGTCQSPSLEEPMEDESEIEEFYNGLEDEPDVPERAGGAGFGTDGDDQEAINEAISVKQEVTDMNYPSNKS
Description: SIRT-1 activation/inhibition was measured using the SIRT 1 Direct fluorescent Screening Assay kit (Catalog No. 10010401) and instructions provided therein of Cayman Chemical Company, 1180 East Ellsworth Road, Ann Arbor, Mich. 48108 USA. (http://www.caymanchem.com/pdfs/10010401.pdf)

[1] = test system: 3T3-L1 mouse adipocyte cells; assay: Adipogenesis inhibitory assay (Oil Red-O staining); assay type: cell-based; settings: for IC50: Mus musculus, 3T3-L1, Oil Red-O, OD 492 nm, read-out: IC50, inhibition of adipogenesis; for Adipogenesis inhibitory potential relative to Resveratrol: times more effective / superior than resveratrol
Description: A common assay to measure adipocyte differentiation in cell culture is with the dye Oil Red-O, which is a lipid-soluble red dye. Since terminal differentiation of adipocytes is accompanied by the accumulation of great amounts of lipids in large cytoplasmic vesicles, a strong, bright, staining of the cytoplasm with this dye is a reliable indicator of adipocyte differentiation.
3T3-L1 mouse adipocyte cells are seeded at a density of 5000 cell/200 μl of adipocyte induction medium in a 96 well plate. After 48 hrs varying concentrations of the sample are added. After 72 hrs, the medium is changed to adipocyte progression medium along with the sample. The medium is similarly changed after another 48 hours. The plates are washed gently after 48 hrs with 100 μl of PBS. 100 μl of 10% formalin is used to fix the cells for 30 min keeping at RT. The cells are then washed twice with 60% isopropanol gently. 100 μl of clear Oil red O stain is added to the wells & kept for staining for 1 hr. The cells are then washed with 70% Ethanol twice, once with PBS and air dried. Then 100 μl of 4% triton×100 in isopropanol is added to all the wells covered tightly & kept it in a shaker for 20 min at […]. The OD reading is taken at 492 nm in microplate reader.
The results are expressed as IC50 values using Graphpad prism software. The percentage of inhibition of adipogenesis is calculated as follows,
Where C-absorbance due to adipogenesis in untreated cells T-absorbance due to adipogenesis in sample treated cells
Note: IC50 is the concentration required for 50% inhibition of adipogenesis. Lower IC50 indicates better efficacy.

[2] = test system: Propionibacterium acnes ATCC 11827; assay: Broth dilution method, inhibitory concentration (IC50, IC100); assay type: cell-based; settings: for inhibition at 16.6 µg/mL / inhibition at 41.6 µg/mL / inhibition at 83.3 µg/mL / inhibition at 166 µg/mL / inhibition at 332 µg/mL / IC50 / inhibition at 498 µg/mL: Cutibacterium acnes, ATCC11827
Description: Method: Broth dilution method to evaluate the inhibitory concentration (IC).
Materials • 1. Propionibacterium acnes ATCC: 11827 • 2. Physiological saline or Buffered peptone water (BPW). • 3. Reinforced clostridium medium (RCM) Hi-media • 4. Actinomyces broth (AC broth) Hi-media • 5. Anaerobic chamber. • 6. Gassing manifold Nitrogen, mixed gases. • 7. Spectrophotometer (600 nm to 625 nm). • 8. Sterile tubes • 9. Micro Pipette • 10. Sterile micro tips. • 11. (DMSO) dimethylsulphoxide
The strain Propionibacterium acnes (ATCC 11827) was obtained from ATCC. The inhibitory concentration (IC) of the given sample was determined by broth dilution method according to NCCLS guidelines. The IC50 was defined as that concentration of compound that reduced bacterial growth by 50% as determined spectrophotometrically. IC100 was defined as the lowest concentration of compound that inhibited bacterial growth by 100%. Resveratrol and 3-Hydroxypsterostilbene are water insoluble. Therefore samples were dissolved in DMSO and than added to Actinomyces broth to a final concentration of 0-500 mg/L. Twenty-four hour cultures of P.acnes were adjusted to 1×10^8 cfu/ml using McFarland standards and inoculated to Actinomycetes broth containing a specific concentration of compound. Controls containing just DMSO were also included in the test. Cultures were incubated anaerobically at 37° C. and read spectrophotometrically at 600 nm both at 24 h and 48 h incubation periods. IC50 and IC100 values were calculated from these observations.

[3] = 16.6 mg/L, 24 h, IC n = n % inhibition of bacterial growth
[4] = 16.6 mg/L, 48 h, IC n = n % inhibition of growth
[5] = 41.6 mg/L, 24 h, IC n = n % inhibition of growth
[6] = 41.6 mg/L, 48 h, IC n = n % inhibition of growth
[7] = 83.3 mg/L, 24 h, IC n = n % inhibition of growth
[8] = 83.3 mg/L, 48 h, IC n = n % inhibition of growth
[9] = 166 mg/L, 24 h, IC n = n % inhibition of growth
[10] = 166 mg/L, 48 h, IC n = n % inhibition of growth
[11] = 332 mg/L, 24 h, IC n = n % inhibition of growth
[12] = 332 mg/L, 48 h, IC n = n % inhibition of growth
[13] = P. acnes ATCC 11827, 24 h, read-out: IC50 24 h
[14] = P. acnes ATCC 11827, 48 h, read-out: IC50 48 h

Compound	activation at 1 µg/mL (SIRT1 polypeptide)	activation at 10 µg/mL (SIRT1 polypeptide)	IC50 [1]	OD @ 600 nm 24 h ([2]; 16.6 mg/L, 24 h, dilution 1:2)	OD @ 600 nm 48 h ([2]; 16.6 mg/L, 48 h, dilution 1:2)	OD @ 600 nm 24 h ([2]; 41.6 mg/L, 24 h, dilution 1:2)	OD @ 600 nm 48 h ([2]; 41.6 mg/L, 48 h, dilution 1:2)	Concentration showing 100% inhibition of Propionibacterium acnes ([2]; 24 hours of incubation)	Concentration showing 100% inhibition of Propionibacterium acnes ([2]; 48 hours of incubation)	inhibition at 41.6 µg/mL [2, 5]	inhibition at 41.6 µg/mL [2, 6]	inhibition at 83.3 µg/mL [2, 7]	inhibition at 83.3 µg/mL [2, 8]	inhibition at 166 µg/mL [2, 9]	inhibition at 166 µg/mL [2, 10]	inhibition at 332 µg/mL [2, 11]	inhibition at 332 µg/mL [2, 12]	IC50 [2, 13]	IC50 [2, 14]	IC100 24 h ([2]; P. acnes ATCC 11827, 24 h)	also measured
COc1cc(/C=C/c2ccc(O)c(O)c2)cc(OC)c1 [3-hydroxypterostilbene]	224%	669%	0.00483 µM	0.526	0.443	0.352	0.338	83.3 mg/mL	83 mg/mL	62%	62%	98%	98%	100%	100%	100%	100%	33.5 µg/mL (≈ 123 µM)	35.8 µg/mL (≈ 131 µM)	83.3 mg/L	Adipogenesis inhibitory potential relative to Resveratrol [1]: about 5000 times; Adipogenesis inhibitory potential relative to Resveratrol ([1]; listed as 3,5-dimethoxy-3,4′-dihydroxystilbene): 5000 times; OD @ 600 nm 24 h ([2]; 83.3 mg/L, 24 h, dilution As such): 0.047; OD @ 600 nm 48 h ([2]; 83.3 mg/L, 48 h, dilution As such): 0.073; inhibition at 16.6 µg/mL [2, 3]: 45%; inhibition at 16.6 µg/mL [2, 4]: 45%; IC100 48 h ([2]; P. acnes ATCC 11827, 48 h): 83.0 mg/L
Oc1ccc(/C=C/c2cc(O)cc(O)c2)cc1 [Resveratrol, 3,4′,5-trihydroxy-trans-stilbene]	138%	291%	25 µM	1.027	0.884	0.777	0.593	332 mg/mL	498 mg/mL	17%	27%	55%	30%	75%	68%	100%	85%	83 µg/mL (≈ 364 µM)	120 µg/mL (≈ 526 µM)	332.0 mg/L	(IC) Inhibitory concentration [2, 3]: No inhibition; (IC) Inhibitory concentration [2, 4]: No inhibition; OD @ 600 nm 24 h ([2]; 83.3 mg/L, 24 h, dilution 1:2): 0.423; OD @ 600 nm 48 h ([2]; 83.3 mg/L, 48 h, dilution 1:2): 0.573; OD @ 600 nm 24 h ([2]; 166 mg/L, 24 h, dilution 1:2): 0.232; OD @ 600 nm 48 h ([2]; 166 mg/L, 48 h, dilution 1:2): 0.268; OD @ 600 nm 24 h ([2]; 332 mg/L, 24 h, dilution As such): 0.00; OD @ 600 nm 48 h ([2]; 332 mg/L, 48 h, dilution As such): 0.11; OD @ 600 nm 48 h ([2]; 498 mg/L, 48 h, dilution As such): 0.00; inhibition at 498 µg/mL ([2]; 498 mg/L, 24 h, IC n = n % inhibition of growth): 100%; inhibition at 498 µg/mL ([2]; 498 mg/L, 48 h, IC n = n % inhibition of growth): 100%; IC100 48 h ([2]; P. acnes ATCC 11827, 48 h): 498 mg/L
